Measured values as given in patent US4507485A, “3,4-Disubstituted-1,2,5-oxadiazoles having histamine H2 -receptor antagonist activity” (Bristol-Myers Company, priority 1984, dated 1985).

What was measured:
[1] = in vivo; cited from earlier work
gastric secretion = conditions: cited from earlier work
histamine H2-receptor = conditions: cited from earlier work; for histamine H2-antagonist potency/effectiveness: compared with burimamide or metiamide
[2] = system: gastric secretion (gastric fistula rat); histamine H2-receptor; test: Gastric antisecretory activity in the gastric fistula rat; assay type: in vivo, rat (male Long Evans); conditions: sc; for Potency Ratio: relative to cimetidine = 1.0
Experimental: Male Long Evans rats weighing about 240-260 grams at the time of cannula implantation are used. […] The fistula components are designed and the operative procedure is carried out exactly as described in the above reference. Post operatively the animals are individually housed in solid bottom cages with sawdust and are allowed food and water ad libitum throughout the entire recovery period. Animals are not used for test purposes for at least 15 days after the operative procedure. The animals are fasted but allowed water ad libitum for 20 hours before the testing procedure is to begin. […] The catheter is then screwed into the cannula in place of the plugging screw and the rat is placed in a clear plastic rectangular cage measuring 40 cm long, 15 cm wide and 13 cm high. The bottom of the cage has a slit approximately 1.5 cm wide and 25 cm long running down the center to accommodate the catheter which hangs through it. […] Chem. Path. […] Gastric secretions collected during the first hour after washing the stomach are discarded as they may be contaminated. For oral evaluation, the catheter is then removed from the cannula and replaced with the plugging screw. […] After this time the plugging screw is removed and replaced with a catheter to which a small plastic vial has been attached to collect the gastric secretions. […] The secretions in the second sample are compared to those of the control sample in order to determine the effects of the test drug. […] Results are expressed as percent inhibition relative to control readings. Dose response curves are constructed and ED50 values are calculated by regression analyses. At least three rats are used at each dosage level and a minimum of three dosage levels are utilized for determination of a dose response curve.

[3] = in vivo; cited from earlier work; remark: listed apart in the source
peptic ulcer disease = conditions: clinical evaluation; cited from earlier work
[4] = system: gastric secretion (Heidenhain pouch dog); test: Gastric antisecretory activity in the Heidenhain pouch dog; assay type: in vivo, dog (female); conditions: iv; for ED50: Canis lupus familiaris, histamine infusion
Experimental: Prior to surgery, hematology and blood chemistry profiles are obtained and an assessment made as to the general health of selected female dogs. Dogs are vaccinated with Tissue Vax 5 (DHLP--Pitman-Moore) and housed in general animal quarters for four weeks' observation so incipient diseases may become apparent. Dogs are fasted with water ad libitum 24 hours prior to surgery.
Anesthesia is induced with Sodium Pentothal (Abbott) 25-30 mg/kg iv. Subsequent anesthesia is maintained with methoxyflurane (Pitman-Moore). A mid-line linea alba incision from xiphoid to umbilicus provides good exposure and ease of closure. The stomach is pulled up into the operative field, the greater curvature stretched out at multiple points and clamps placed along the selected line of incision. The pouch is made from the corpus of the stomach so that true parietal cell juice is obtained. About 30% of the corpus volume is resected. […]
Ninety minutes' infusion are allowed for the dogs to reach a steady state of acid output. […] Each sample is measured to the nearest 0.5 ml and titratable acidity is determined by titrating a 1 ml sample to pH 7.0 with 0.2N NaOH, using an Autoburet and an electrometric pH meter (Radiometer). Titratable acid output is calculated in microequivalents by multiplying the volume in milliliters by the acid concentration in milliequivalents per liter.
Results are expressed as percent inhibition relative to control readings and the response is the average for five days at that dose level.

SMILES	toxicity (agranulocytosis) [1]	histamine H2-antagonist potency/effectiveness (histamine H2-receptor)	ED50 [2] [µmol/kg]	Potency Ratio [2]	ED50 [4] [mg/kg]	further results
CNC(=S)NCCSCc1[nH]cnc1C [Metiamide]	toxicity (agranulocytosis)	more potent than burimamide	–	–	–	oral activity in man (gastric secretion; oral, man): orally active in man
CN(C)Cc1ccc(CSCCNc2nonc2N)o1 [Example 2, 3-Amino-4-{2-[(5-dimethylaminomethyl-2-furyl)methylthio]ethylamino}-1,2,5-oxadiazole]	–	–	5	0.70	–	–
CNC(=S)NCCCCc1cnc[nH]1 [Burimamide]	–	–	–	–	–	inhibition of gastric secretion (gastric secretion; animals, including man): inhibits gastric secretion in animals, including man; oral absorption [3]: poor; clinical effectiveness as histamine H2-receptor antagonist (histamine H2-receptor; clinical): first clinically effective
CN=C(NC#N)NCCSCc1[nH]cnc1C [Cimetidine]	without producing agranulocytosis	as effective an histamine H2 -antagonist as metiamide	–	–	–	therapeutic effect in peptic ulcer disease (peptic ulcer disease): effective therapeutic agent in the treatment of peptic ulcer disease
Nc1nonc1NCCCOc1cccc(CN2CCCCC2)c1 [Example 1, 3-Amino-4-[3-(3-piperidinomethylphenoxy)propylamino]-1,2,5-oxadiazole]	–	–	0.18	19.3	0.03	Potency Ratio ([4]; relative to ranitidine = 1.0): 1.8
CNC(=C[N+](=O)[O-])NCCSCc1ccc(CN(C)C)o1 [Ranitidine]	–	–	–	–	0.054	–
